Experimental data published in patent US10066004B2 (ARIZONA CANCER THERAPEUTICS, LLC, priority 2010, dated 2018).
Where two headings read alike, the source gives them in different places. Positions of bridges follow the written chain, without caps; N, C: chain ends. Non-standard residues stand in square brackets, D forms with d. Residues, ends and D or L forms follow the SMILES beside them. No end group written: not given here. R8 = C=CCCCCCC[C@@](C)(N)C(=O)O; S5 = C=CCCC[C@](C)(N)C(=O)O

Assays:
[1] = test system: patient-derived glioma lines (BT145, BT147, GB16, GB7, GB42); experiment: Viability of patient-derived GBM cells; assay type: cell-based
Excerpt: FIG. 13A and FIG. 13B show treatment of patient-derived GBM cells with various EGFR inhibitor peptides.
(§1) EGFR is amplified or mutated in more than 40% of glioblastoma multiforme (GBM) tumors. Referring to FIG. 13-14, inhibitor peptides of the present invention were used to treat GBM cells and tumors.

[2] = test system: GBM tumors; experiment: In vivo tumor growth, daily subcutaneous injections of SAH-EJ1; design: species or system mice; conditions: 10 mg/kg daily subcutaneous, vs control mouse
Excerpt: as §1

[3] = molecular target: Ecyl EGFR peptide; experiment: ITC binding experiments
[4] = test system: SKOV3 cells; experiment: MTT killing of erbB2 positive ovarian cancer cells, one hour treatment; assay type: cell-based
Experimental: The erbB2 positive ovarian cancer cell line, SKOV3 was treated with SAH5-EJ1 for one hour with concentrations between 10 uM and 40 uM.

[5] = Peptide solubility; assay type: physicochemical
Experimental: The EJ peptides were synthesized by GenScript (Scotch Plains, N.J.), delivered lyophilized, and stored at −20° C. Peptides were resuspended as needed at 1 mmol/1 in water and stored for up to 2 weeks at 4° C. EJ1 peptide sequences are shown conjugated to the PTD4 domain ([…] (SEQ ID NO: 110)) in FIG. 6c.

[6] = test system: MDA-MB-468 cells; conditions: MDA-MB-468, 20 uM peptide, 3 days (FIG. 1)
Experimental: Inhibitor peptides were evaluated on their ability to inhibit growth of triple-negative breast cancer cells MDA-MB-468 (20 uM peptide treatment). […] SEQ ID NO: 13 is […] SEQ ID NO: 14 is […] SEQ ID NO: 15 is […] SEQ ID NO: 16 is […] SEQ ID NO: 17 is […] SEQ ID NO: 18 is […] SEQ ID NO: 19 is […] SEQ ID NO: 20 is […] SEQ ID NO: 21 is […] SEQ ID NO: 22 is […] SEQ ID NO: 23 is […] SEQ ID NO: 24 is […] SEQ ID NO: 25 is […]
(§2) Peptide designations are indicated in the right column. Changes from EJ1 in EJ2-11 are denoted in the second column from the right. (d-j) Cell lines were treated daily with 20 μmol/l EJ1, 20 μmol/l CP, or vehicle (water) for 3 days unless otherwise noted, and cell viability was determined by the MTT assay. Growth rates for vehicle-treated cells were set to 100%, and CP and EJ1 rates were adjusted accordingly. *P<0.05, **P<0.01, ***P<0.001 (Student's t-test). Error bars, mean±SD. (From Hart et al., 2013, Molecular Therapy 21(11):1996-2007, the disclosure of which is incorporated herein in its entirety.)
To do this, we created cell-penetrating peptides to act as dominant-negative “decoys,” thereby inhibiting endogenous jxm interactions. Peptides specific for jxm subdomains were synthesized downstream of the protein transduction domain-4 (PTD4; FIG. 6). Next, the effect of peptide treatment on cell viability was analyzed on the breast cancer cell line MDA-MB-468 by MTT (3-[4,5-dimethylthiazol-2-yl]-2,5-diphenyl tetra-zolium bromide) analysis after 3 days of treatment.
(§3) Protein lysate preparation, immunoprecipitation, and western blotting were performed as described previously. For cross-linking, cells were first incubated according to manufacturer instructions with 3 μmol/l DMS, a membrane-permeable, noncleavable, cross-linking agent (Thermo Scientific, Waltham, Mass.). Cells were analyzed both by the MTT assay following manufacturer's instructions (Sigma) and using a U-Quant Spectrophotometer (Bio-TEK Instruments, Winooski, Vt.).

[7] = test system: AsPC1 cells; conditions: human, 3 day, 20 μmol/l
Experimental: as §2, §3

[8] = test system: MDA-MB-231 cells; conditions: human, 3 day, 20 μmol/l
Experimental: as §2, §3

[9] = test system: MIA PaCa-2 cells; conditions: human, 3 day, 20 μmol/l
Experimental: as §2, §3

[10] = test system: T47D cells; conditions: human, 3 day, 20 μmol/l
Experimental: as §2, §3

[11] = test system: MMTV-pyMT murine model of breast cancer; experiment: Tumor growth and lung metastasis in MMTV-pyMT transgenic mice; assay type: in vivo, mouse; conditions: 20 μg/g body weight i.p. daily
Experimental: (a) MMTV-PyMT mice were allowed to develop tumors of 50 mm^3 before being treated once daily (i.p. injection) with indicated doses of Ctrls (20 μg/g CP5 (n=3), PBS (n=2)) and EJ1 (10 μg/g (n=6), 15 μg/g (n=1), and 20 μg/g (n=7), or twice-daily doses of 40 μg/g (n=3)). Peaks represent average total tumor burden growth rate in mm^3 per day for each treatment. Error bars, mean±SD. *P<0.05; **P<0.005, Student's t-test. (b) Control (12 mice (20 μg/g CP5 (n=5), PBS (n=7), n=100 tumors) vs. 20 μg/g EJ1-treated (eight mice, n=72 tumors) individual tumor growth rates and representative tumor images (insets). Mean denoted by horizontal line. **P<0.005, Student's t-test. (c) Mice were treated with 10, 15, or 20 μg/g body weight EJ1 or control for 21 days and tumors were measured twice weekly. Box plots are shown for day 0 (10 μg/g EJ1: n=6 mice, 21 tumors; 15 μg/g EJ1: n=1 mouse, two tumors; 20 μg/g EJ1: n=8 mice, 24 tumors; Ctrls: n=12 mice, 41 tumors) and final day (10 μg/g EJ1: n=6 mice, 46 tumors; 15 μg/g EJ1: n=1 mouse, nine tumors; 20 μg/g EJ1: n=8 mice, 72 tumors; Ctrls: n=12 mice, 100 tumors). […]
Additionally, many resected EJ1-treated tumors were necrotic in appearance compared with those in controls (FIG. 11b (insets)). […] The MMTV-pyMT transgenic mice present with lung metastasis; we therefore evaluated the effects of EJ1 on lung metastasis. […]

Molecule: CC[C@H](C)[C@H](NC(=O)[C@H](Cc1c[nH]cn1)NC(=O)[C@H](CCCNC(=N)N)NC(=O)[C@H](CCCNC(=N)N)NC(=O)[C@H](CCCNC(=N)N)NC(=O)[C@H](CCSC)NC(=O)[C@H](Cc1ccccc1)NC(=O)[C@H](C)NC(=O)[C@H](CCCNC(=N)N)NC(=O)[C@H](C)NC(=O)[C@H](CCC(N)=O)NC(=O)[C@H](CCCNC(=N)N)NC(=O)[C@H](C)NC(=O)[C@H](C)NC(=O)[C@H](C)NC(=O)[C@H](CCCNC(=N)N)NC(=O)[C@H](C)NC(=O)[C@@H](N)Cc1ccc(O)cc1)C(=O)N[C@]1(C)CCCCCCC=CCCC[C@@](C)(C(=O)N[C@@H](CC(C)C)C(=O)N[C@@H](CC(C)C)C(=O)N[C@@H](CCC(N)=O)C(=O)N[C@@H](CCC(=O)O)C(=O)N[C@@H](CCCNC(=N)N)C(=O)N[C@@H](CCC(=O)O)C(=O)O)NC(=O)[C@H](CCCNC(=N)N)NC(=O)[C@H](CC(C)C)NC(=O)[C@H]([C@@H](C)O)NC(=O)[C@H](CCCNC(=N)N)NC(=O)[C@H](CCCCN)NC(=O)[C@H](CCCNC(=N)N)NC1=O [SAH-EJ1] (H-YARAAARQARAFMRRRHI[R8]RKRTLR[S5]LLQERE-OH; staple 19-26; N-terminus and C-terminus assumed)
- cell viability of patient-derived glioma lines ([1]; BT145 and BT147 (FIG. 13A)): decrease in viability
- cell viability of patient-derived glioma lines ([1]; GB16, GB7, GB42 and BT147, 24 hr treatment (FIG. 13B)): decrease in viability
- tumor growth in vivo [2]: growth of the tumor is reduced
- tumor growth in vivo ([2]; listed as stapled EJ): decrease tumor growth
- Kd ([3]; 100 uM and 150 uM experiments, read-out: Kd, average of both experiments): ~2850 nM
- Kd ([3]; peptide at 100 uM, target at 500 uM, read-out: Kd): 2500 nM
- Kd ([3]; peptide at 150 uM, target at 500 uM, read-out: Kd): 3200 nM

Molecule: SAH5-EJ1: stapled EJ1: PTD4 domain combined with SEQ ID NO: 103 (YARAAARQARAFMRRRHIVRKR[R8]LRRLLQ[S5]RE; staple 23-30 (inferred))
- concentration inducing optimal cell killing ([4]; SKOV3, one hour of treatment): 5.0 to 10.0 µM
- cell killing (MTT) ([4]; SKOV3, one hour, 10 uM to 40 uM): all cells were killed

Molecule: YARAAARQARAFMAAAHIVAAATLAALLQERE [EJ8]
- solubility of peptide [5]: insoluble

Molecule: YARAAARQARAFMRRRHIVRKRTLRRLLQERE [EJ1]
- survival rate of cells after 3 days [6]: 5%
- reduction of cellular viability [7]: 10%
- reduction of cellular viability [8]: 10%
- reduction of cellular viability [9]: 1%
- reduction of cellular viability [10]: 60%
- toxicity (weight loss, grooming behavior, gross changes to organs upon necropsy) [11]: no toxicity
